Columns and labels:
[1] = test system: Respiratory syncytial virus recombinant with luciferase (RSV-Luc5); assay: NHBE RSV-Luc5 384-well assay (EC50 RSVFLUC NHBE-384 v2), Example W; format: cell-based; settings: human respiratory syncytial virus, 72 h, read-out: EC50 RSV FLUC NHBE 384 V2 (per Ex. W)
How it was run: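 Primary NHBE cells (passage 2), 5,000/well, infected with RSV-Luc5 at MOI 1 alongside 10-point 1:3 compound dilutions; 3 days at 37° C. Replication read by One-Glo luminescence, normalized to remdesivir (0%) and DMSO (100%); EC50 = concentration reducing replication by 50%, from non-linear regression.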

[2] = test system: Human Rhinovirus 16 (HRV16); assay: H1-HeLa HRV-CTG 384-well assay, HRV16, Example X; format: cell-based; settings: Rhinovirus A, 96 h; H1-HeLa cells, HRV16 MOI 0.25, 4 days, Celltiter-Glo; read-out: EC50 H1-HeLa_HRV 16_HRV-CTG 384-well Assay (per Ex. X)
How it was run: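 H1-HeLa cells (5,000/well, DMEM 2% FBS) infected with HRV1B, HRV14 or HRV16 at MOI 0.5, 1.0 and 0.25 respectively, with 10-point 1:3 compound dilutions; 4 days at 37 °C. Viability by CellTiter-Glo luminescence, normalized to rupintrivir and DMSO controls; EC50 by non-linear regression.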

Compound | EC50 [1] [µM] | EC50 [2] [µM]
CC(C)(C)CCOC(=O)OC[C@@]1(C#N)O[C@@H](c2ccc3c(N)ncnn23)[C@H](O)[C@@H]1O [Compound 35, ((2R,3S,4R,5S)-5-(4-aminopyrrolo[2,1-f][1,2,4]triazin-7-yl)-2-cyano-3,4-dihydroxytetrahydrofuran-2-yl)methyl (3,3-dimethylbutyl) carbonate] | 5.78 | 15.1
CC(C)(C)COC(=O)OC[C@@]1(C#N)O[C@@H](c2ccc3c(N)ncnn23)[C@H](O)[C@@H]1O [Compound 2, ((2R,3S,4R,5S)-5-(4-aminopyrrolo[2,1-f][1,2,4]triazin-7-yl)-2-cyano-3,4-dihydroxytetrahydrofuran-2-yl)methyl neopentyl carbonate] | 11.4 | 9.74
N#C[C@]1(COC(=O)OC2CCCC2)O[C@@H](c2ccc3c(N)ncnn23)[C@H](O)[C@@H]1O [Compound 1, ((2R,3S,4R,5S)-5-(4-aminopyrrolo[2,1-f][1,2,4]triazin-7-yl)-2-cyano-3,4-dihydroxytetrahydrofuran-2-yl)methyl cyclopentyl carbonate] | 12.8 | 31.2

— patent US20230382940A1, “ANTIVIRAL COMPOUNDS AND METHODS OF MAKING AND USING THE SAME” (Gilead Sciences, Inc., priority 2022, published 2023)
